Source: US9475817B2 (BRISTOL-MYERS SQUIBB COMPANY, priority 2012, dated 2016)

Legend:
CK1δ = CK1δ (Homo sapiens (Human), UniProt P48730); test: CK1δ kinase assay (Caliper LabChip, fluoresceinated peptide substrate); assay type: biochemical; conditions: 200 pM CK1δ, 50 μM ATP, 1.5 μM peptide substrate, 22 hours room temperature
Method: (§1) CK1ε and CK1δ Kinase Assays
(§2) The kinase assay was performed in V-bottom 384-well plates. […] The reaction was incubated at room temperature for 22 hours and terminated by adding 45 μl of 35 mM EDTA to each sample. […] Compounds were dissolved at 10 mM in dimethylsulfoxide (DMSO) and evaluated at eleven concentrations. IC50 values were derived by non-linear regression analysis.

CK1ε = CK1ε (Homo sapiens (Human), UniProt P49674); test: CK1ε kinase assay (Caliper LabChip, fluoresceinated peptide substrate); assay type: biochemical; conditions: 200 pM CK1ε, 50 μM ATP, 1.5 μM peptide substrate, 22 hours room temperature
Sequence of CK1ε (P49674 whole entry): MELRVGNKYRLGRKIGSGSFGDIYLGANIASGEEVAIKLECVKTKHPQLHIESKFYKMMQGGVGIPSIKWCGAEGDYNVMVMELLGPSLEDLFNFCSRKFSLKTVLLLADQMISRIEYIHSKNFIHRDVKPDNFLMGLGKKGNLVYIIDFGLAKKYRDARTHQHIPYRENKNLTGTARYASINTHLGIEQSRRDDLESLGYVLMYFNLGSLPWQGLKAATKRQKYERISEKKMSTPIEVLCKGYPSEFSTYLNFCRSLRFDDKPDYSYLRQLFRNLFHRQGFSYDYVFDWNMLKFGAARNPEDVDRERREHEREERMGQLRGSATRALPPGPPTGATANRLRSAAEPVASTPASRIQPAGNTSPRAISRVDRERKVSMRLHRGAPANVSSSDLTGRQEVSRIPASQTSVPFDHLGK
Method: as §1, §2

Sequence of CK1δ (P48730 whole entry): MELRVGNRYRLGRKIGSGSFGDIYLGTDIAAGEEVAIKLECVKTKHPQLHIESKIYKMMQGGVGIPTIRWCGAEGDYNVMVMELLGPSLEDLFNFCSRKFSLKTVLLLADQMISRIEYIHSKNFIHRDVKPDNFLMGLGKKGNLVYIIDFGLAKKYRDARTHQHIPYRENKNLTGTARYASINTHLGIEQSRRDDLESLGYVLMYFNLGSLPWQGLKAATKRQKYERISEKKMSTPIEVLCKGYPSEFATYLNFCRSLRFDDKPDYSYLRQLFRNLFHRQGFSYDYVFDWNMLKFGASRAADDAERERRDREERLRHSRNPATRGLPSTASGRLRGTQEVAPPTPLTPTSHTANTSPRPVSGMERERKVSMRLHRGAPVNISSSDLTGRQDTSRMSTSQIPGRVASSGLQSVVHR

Row | Structure (SMILES) | IC50 (CK1δ) [nM] | IC50 (CK1ε) [nM]
1 | O=C(Nc1cn2nc(-c3cn(C4CC4)nc3-c3ccc(F)cc3)ccc2n1)c1cc(F)nc(F)c1 [Compound 105, N-(6-(1-cyclopropyl-3-(4-fluorophenyl)-1H-pyrazol-4-yl)imidazo[1,2-b]pyridazin-2-yl)-2,6-difluoroisonicotinamide] | 4.8 | 46.5
2 | O=C(Nc1cn2nc(-c3cn(C4CC4)nc3-c3ccc(F)cc3)ccc2n1)c1ccncc1F [Compound 106, N-(6-(1-cyclopropyl-3-(4-fluorophenyl)-1H-pyrazol-4-yl)imidazo[1,2-b]pyridazin-2-yl)-3-fluoroisonicotinamide] | 3.5 | 14
3 | O=C(Nc1cn2nc(-c3cn(C4CC4)nc3-c3ccc(F)cc3)ccc2n1)c1cccc(-c2cccnc2)c1 [Compound 108, N-(6-(1-cyclopropyl-3-(4-fluorophenyl)-1H-pyrazol-4-yl)imidazo[1,2-b]pyridazin-2-yl)-3-(pyridin-3-yl) benzamide] | 2 | 32.6
4 | Cc1nc(-c2cccnc2)sc1C(=O)Nc1cn2nc(-c3cn(C4CC4)nc3-c3ccc(F)cc3)ccc2n1 [Compound 109, N-(6-(1-cyclopropyl-3-(4-fluorophenyl)-1H-pyrazol-4-yl)imidazo[1,2-b]pyridazin-2-yl)-4-methyl-2-(pyridin-3-yl)thiazole-5-carboxamide] | 2.5 | 12.3
5 | Cc1nc(-c2ccccn2)sc1C(=O)Nc1cn2nc(-c3cn(C4CC4)nc3-c3ccc(F)cc3)ccc2n1 [Compound 110, N-(6-(1-cyclopropyl-3-(4-fluorophenyl)-1H-pyrazol-4-yl)imidazo[1,2-b]pyridazin-2-yl)-4-methyl-2-(pyridin-2-yl)thiazole-5-carboxamide] | 5.5 | 28.8
6 | Cc1nc(-c2ccncc2)sc1C(=O)Nc1cn2nc(-c3cn(C4CC4)nc3-c3ccc(F)cc3)ccc2n1 [Compound 111, N-(6-(1-cyclopropyl-3-(4-fluorophenyl)-1H-pyrazol-4-yl)imidazo[1,2-b]pyridazin-2-yl)-4-methyl-2-(pyridin-4-yl)thiazole-5-carboxamide] | 6.2 | 35
7 | Cn1nc(-c2ccc(F)cc2)c(-c2ccc3nc(NC(=O)c4ccnc(F)c4)cn3n2)c1N1CCNCC1 [Compound 113, 2-fluoro-N-(6-(3-(4-fluorophenyl)-1-methyl-5-(piperazin-1-yl)-1H-pyrazol-4-yl)imidazo[1,2-b]pyridazin-2-yl)isonicotinamide] | 0.6 | 2.3
8 | COc1cc(C(=O)Nc2cn3nc(-c4c(-c5ccc(F)cc5)nn(C)c4N4CCNCC4)ccc3n2)ccn1 [Compound 118, N-(6-(3-(4-Fluorophenyl)-1-methyl-5-(piperazin-1-yl)-1H-pyrazol-4-yl)imidazo[1,2-b]pyridazin-2-yl)-2-methoxyisonicotinamide] | 0.8 | 3.6
9 | Cn1nc(-c2ccc(F)cc2)c(-c2ccc3nc(NC(=O)c4ccncc4)cn3n2)c1N1CCNCC1 [Compound 129, N-(6-(3-(4-Fluorophenyl)-1-methyl-5-(piperazin-1-yl)-1H-pyrazol-4-yl)imidazo[1,2-b]pyridazin-2-yl)isonicotinamide] | 0.9 | 3.3
10 | Cn1nc(-c2ccc(F)cc2)c(-c2ccc3nc(NC(=O)c4ccncc4)cn3n2)c1N1CCN(CCC(F)(F)F)CC1 [Compound 130, N-(6-(3-(4-Fluorophenyl)-1-methyl-5-(4-(3,3,3-trifluoropropyl)piperazin-1-yl)-1H-pyrazol-4-yl)imidazo[1,2-b]pyridazin-2-yl)isonicotinamide] | 1.4 | 23.5
11 | Cn1nc(-c2ccc(F)cc2)c(-c2ccc3nc(NC(=O)c4ccncc4)cn3n2)c1N1CCN(Cc2ccon2)CC1 [Compound 131, N-(6-(3-(4-Fluorophenyl)-5-(4-(isoxazol-3-ylmethyl)piperazin-1-yl)-1-methyl-1H-pyrazol-4-yl)imidazo[1,2-b]pyridazin-2-yl)isonicotinamide] | 0.3 | 3.1
12 | Cn1nc(-c2ccc(F)cc2)c(-c2ccc3nc(NC(=O)c4ccncc4)cn3n2)c1N1CCN(C(=O)CC(F)(F)F)CC1 [Compound 132, N-(6-(3-(4-Fluorophenyl)-1-methyl-5-(4-(3,3,3-trifluoropropanoyl)piperazin-1-yl)-1H-pyrazol-4-yl)imidazo[1,2-b]pyridazin-2-yl)isonicotinamide] | 0.6 | 6.7
13 | Cn1nc(-c2ccc(F)cc2)c(-c2ccc3nc(NC(=O)c4ccncc4)cn3n2)c1N1CCN(C(=O)c2ccon2)CC1 [Compound 133, N-(6-(3-(4-Fluorophenyl)-5-(4-(isoxazole-3-carbonyl)piperazin-1-yl)-1-methyl-1H-pyrazol-4-yl)imidazo[1,2-b]pyridazin-2-yl)isonicotinamide] | 1 | 8.1
14 | Cn1nc(-c2ccc(F)cc2)c(-c2ccc3nc(NC(=O)c4ccnc(N5CCOCC5)c4)cn3n2)c1N1CCN(CCC(F)(F)F)CC1 [Compound 135, N-(6-(3-(4-Fluorophenyl)-1-methyl-5-(4-(3,3,3-trifluoropropyl)piperazin-1-yl)-1H-pyrazol-4-yl)imidazo[1,2-b]pyridazin-2-yl)-2-morpholinoisonicotinamide] | 1.6 | 35
15 | Cn1nc(-c2ccc(F)cc2)c(-c2ccc3nc(NC(=O)c4ccnc(N5CCOCC5)c4)cn3n2)c1N1CCN(Cc2ccon2)CC1 [Compound 136, N-(6-(3-(4-Fluorophenyl)-5-(4-(isoxazol-3-ylmethyl)piperazin-1-yl)-1-methyl-1H-pyrazol-4-yl)imidazo[1,2-b]pyridazin-2-yl)-2-morpholinoisonicotinamide] | 0.8 | 12

Other lines, results leading:

Row | IC50 (CK1δ) [nM] | IC50 (CK1ε) [nM] | Structure (SMILES)
16 | 0.7 | 9.3 | CN1CCN(c2c(-c3ccc4nc(NC(=O)c5ccnc(F)c5)cn4n3)c(-c3ccc(F)cc3)nn2C)CC1 [Compound 116, 2-fluoro-N-(6-(3-(4-fluorophenyl)-1-methyl-5-(4-methylpiperazin-1-yl)-1H-pyrazol-4-yl)imidazo [1,2-b]pyridazin-2-yl)isonicotinamide]
17 | 0.3 | 10.1 | Cn1nc(-c2ccc(F)cc2)c(-c2ccc3nc(NC(=O)c4ccnc(F)c4)cn3n2)c1N1CCN(CCCF)CC1 [Compound 119, 2-Fluoro-N-(6-(3-(4-fluorophenyl)-5-(4-(3-fluoropropyl)piperazin-1-yl)-1-methyl-1H-pyrazol-4-yl)imidazo[1,2-b]pyridazin-2-yl)isonicotinamide]
18 | 0.73 | 18.6 | COCCN1CCN(c2c(-c3ccc4nc(NC(=O)c5ccnc(F)c5)cn4n3)c(-c3ccc(F)cc3)nn2C)CC1 [Compound 120, 2-Fluoro-N-(6-(3-(4-fluorophenyl)-5-(4-(2-methoxyethyl)piperazin-1-yl)-1-methyl-1H-pyrazol-4-yl)imidazo[1,2-b]pyridazin-2-yl)isonicotinamide]
19 | 1.2 | 14.4 | Cn1nc(-c2ccc(F)cc2)c(-c2ccc3nc(NC(=O)c4ccnc(F)c4)cn3n2)c1N1CCN(C(=O)CC(F)(F)F)CC1 [Compound 121, 2-Fluoro-N-(6-(3-(4-fluorophenyl)-1-methyl-5-(4-(3,3,3-trifluoropropanoyl)piperazin-1-yl)-1H-pyrazol-4-yl)imidazo[1,2-b]pyridazin-2-yl)isonicotinamide]
20 | 0.1 | 0.2 | Cn1nc(-c2ccc(F)cc2)c(-c2ccc3nc(NC(=O)c4ccnc(F)c4)cn3n2)c1N1CCN(C(=O)CN)CC1 [Compound 123, N-(6-(5-(4-(2-Aminoacetyl)piperazin-1-yl)-3-(4-fluorophenyl)-1-methyl-1H-pyrazol-4-yl)imidazo[1,2-b]pyridazin-2-yl)-2-fluoroisonicotinamide]
21 | 0.2 | 1.3 | Cn1nc(-c2ccc(F)cc2)c(-c2ccc3nc(NC(=O)c4ccnc(F)c4)cn3n2)c1N1CCN(CC(N)=O)CC1 [Compound 124, N-(6-(5-(4-(2-Amino-2-oxoethyl)piperazin-1-yl)-3-(4-fluorophenyl)-1-methyl-1H-pyrazol-4-yl)imidazo[1,2-b]pyridazin-2-yl)-2-fluoroisonicotinamide]
22 | 0.6 | 4.6 | Cn1nc(-c2ccc(F)cc2)c(-c2ccc3nc(NC(=O)c4ccnc(F)c4)cn3n2)c1N1CCN(CCC#N)CC1 [Compound 125, N-(6-(5-(4-(2-Cyanoethyl)piperazin-1-yl)-3-(4-fluorophenyl)-1-methyl-1H-pyrazol-4-yl)imidazo[1,2-b]pyridazin-2-yl)-2-fluoroisonicotinamide]
23 | 2.9 | 124 | Cn1nc(-c2ccc(F)cc2)c(-c2ccc3nc(NC(=O)c4ccnc(F)c4)cn3n2)c1N1CCN(CCS(C)(=O)=O)CC1 [Compound 126, 2-Fluoro-N-(6-(3-(4-fluorophenyl)-1-methyl-5-(4-(2-(methylsulfonyl)ethyl)piperazin-1-yl)-1H-pyrazol-4-yl)imidazo[1,2-b]pyridazin-2-yl)isonicotinamide]
24 | 1 | 6.2 | Cn1nc(-c2ccc(F)cc2)c(-c2ccc3nc(NC(=O)c4ccnc(F)c4)cn3n2)c1N1CCN(C[C@@H](O)C(F)(F)F)CC1 [Compound 127, (R)-2-Fluoro-N-(6-(3-(4-fluorophenyl)-1-methyl-5-(4-(3,3,3-trifluoro-2-hydroxypropyl)piperazin-1-yl)-1H-pyrazol-4-yl)imidazo[1,2-b]pyridazin-2-yl)isonicotinamide]
25 | 1.5 | 10.6 | Cn1nc(-c2ccc(F)cc2)c(-c2ccc3nc(NC(=O)c4ccnc(F)c4)cn3n2)c1N1CCN(C[C@H](O)C(F)(F)F)CC1 [Compound 128, (S)-2-Fluoro-N-(6-(3-(4-fluorophenyl)-1-methyl-5-(4-(3,3,3-trifluoro-2-hydroxypropyl)piperazin-1-yl)-1H-pyrazol-4-yl)imidazo[1,2-b]pyridazin-2-yl)isonicotinamide]
